Each block holds one molecule with its values, some of them ahead of it.
Key:
Col1A1 mRNA = assay: Real time RT PCR Col1A1 mRNA, TGF-b1 stimulated skin fibroblasts; type: cell-based; details: human skin fibroblasts
Method: Additional studies using human skin fibroblasts were performed employing a type I collagen specific ELISA Chondrex, and real time RT PCR to quantitate type I collagen protein and Col1A1 mRNA expression in culture of human fibroblast stimulated by TGF-b1 in the presence and absence of 17,20S(OH)2pD3 and/or 20(OH)D3. These studies confirmed that Type I collagen protein production that was induced by TGF-b1 and that Col1A1 mRNA that was induced by TGF-b1 were suppressed by these analogues (FIGS. 44A-44B).

HaCaT keratinocytes [1] = assay: Colony forming (clonogenicity) assay in HaCaT keratinocytes; type: cell-based, human; details: 10^−8 M, 10 days
Method: HaCaT and human adult epidermal keratinocytes were cultured and DNA synthesis experiments were performed as described previously (26). Cells were plated in 6-well plates at a density of 20 cells/cm^2 in DMEM (Cellgro, Herndon Va.) containing 5% charcoal-treated fetal bovine serum (Hyclone, Logan, Utah), 1% antibiotic solution (PSA, Sigma, St. Louis, […].) and vehicle or secosteroids. Cells were incubated in 37° C. for 10 days with media being changed every 72 hr. Cells were fixed with 4% paraformaldehyde in PBS overnight, stained with 0.5% crystal violet in PBS for 15 min, rinsed and air-dried. The number and size of the colonies were measured using an ARTEK counter 880 (Dynex Technologies Inc., Chantilly, Va.). Colony forming units were calculated as follows: number of colonies (size>0.5 mm) was divided by the number of cells plated and multiplied by 100.

involucrin [2] = assay: Real-time RT PCR involucrin mRNA, normal human epidermal keratinocytes; type: cell-based; details: 10^−8 M, 6 h
Method: (§1) RNA was extracted using an Absolutely RNA RT-PCR Miniprep Kit (Stratagene, La Jolla, Calif.). Real time PCR and reverse transcription products were purchased from Applied Biosystems, Foster City, Calif. Reverse transcription was performed using Taqman® Reverse Transcription Reagents. The following PCR products were used: cytokeratin 14: Hs00265033_m1, involucrin: Hs00846307_s1, CYP27A1: Hs00168003_ml, CYP27B1: Hs00168017_ml, 18SrRNA: Hs99999901_s1. The reaction was performed with Taqman® Universal PCR Master Mix; data were collected on an ABI Prism 7700 and analyzed on Sequence Detector 1.9.1. Specific gene amounts were related to 18SrRNA by comparative CT method.

involucrin [3] = assay: Involucrin protein expression in HaCaT (flow cytometry, microscopy); type: cell-based, human; details: 10^−8 M, 24 h, flow cytometry
HaCaT keratinocytes [4] = assay: Forward and side scatter (cell size, granularity) of HaCaT keratinocytes; type: cell-based, human; details: HaCaT; 20-hydroxycholecalciferol at 0.1 nM
Method: The FL-1 signal (collected from 10,000 events in side scatter/forward scatter window after debris exclusion) was recorded. Forward (relative to cell size) and side (relative to cell granularity) scatter histograms were generated and mean signal intensity was recorded. FL-1 signal values are presented as dMFI (difference between mean fluorescence intensity of sample stained with specific and isotype control antibody). Scatter signal values are presented as MSI (mean signal intensity). Signal intensities were analyzed with Cell Quest (BD Biosciences, San Diego, Calif.) and graphical representations of the FL-1 signal were prepared with WinMdi 2.8 (shareware from Joseph Trotter, The Scripps Research Institute, San Diego, Calif.).

CYP27B1 = assay: Real-time RT PCR CYP27B1 mRNA, normal epidermal keratinocytes; type: cell-based, human; details: 10^−8 M, 1 h
Method: as §1

CYP27A1 [5] = assay: Real-time RT PCR CYP27A1 mRNA, normal epidermal keratinocytes; type: cell-based, human; details: 10^−8 M, 24 h
Method: as §1

CYP24 promoter = assay: CYP24-Luc reporter in normal epidermal keratinocytes; type: cell-based, human; details: 24 h
Text: The CYP24-Luc construct was a generous gift from Dr Tai Cheng (Boston University Medical Campus, Core Lab Director). It was originally developed by Vaisanen et al. (27). The details of the pLuc construct have been described previously (28-29). Normal epidermal keratinocytes were transfected using Lipofectamine Plus (Invitrogen, Carlsbad, Calif.) in Epilife medium with firefly luciferase reporter gene plasmid and with phRL-TK (expresses Renilla luciferase and serves as normalization control; Promega, Madison, Wis.). After transfection, cells were incubated for 24 hours in EpiLife medium with HKGS. Cells were then transferred to fresh media containing the compounds to be tested or vehicle (ethanol) and incubated for 24 hours. The firefly luciferase and Renilla luciferase signals were recorded with a TD-20/20 luminometer (Turner Designs, Sunnyvale, Calif.); background luminescence was subtracted and the resulting promoter-specific firefly signal was divided by the Renilla signal (proportional to the number of transfected cells). The values obtained were divided by the mean of control (untreated) cells.

rat CYP24 = biological target: T1, rat CYP24 (Rattus norvegicus, UniProt Q09128); assay: Metabolism by rat CYP24 in phospholipid vesicles
T1 sequence (Q09128 36-514): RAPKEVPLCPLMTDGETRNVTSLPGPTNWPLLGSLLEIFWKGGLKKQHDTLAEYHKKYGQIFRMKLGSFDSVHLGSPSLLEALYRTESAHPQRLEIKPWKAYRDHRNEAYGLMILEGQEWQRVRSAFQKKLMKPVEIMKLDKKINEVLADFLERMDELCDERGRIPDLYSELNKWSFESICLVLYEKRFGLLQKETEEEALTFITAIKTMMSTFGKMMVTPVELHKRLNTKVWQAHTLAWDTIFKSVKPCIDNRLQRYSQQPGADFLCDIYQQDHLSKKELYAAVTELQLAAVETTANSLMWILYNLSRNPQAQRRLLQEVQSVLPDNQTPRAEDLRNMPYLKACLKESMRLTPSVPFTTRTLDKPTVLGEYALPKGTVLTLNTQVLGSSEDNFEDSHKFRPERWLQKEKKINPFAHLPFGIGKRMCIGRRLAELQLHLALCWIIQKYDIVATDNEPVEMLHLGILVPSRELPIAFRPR
Method: Samples (typically 0.25-1.0 mL) were incubated at 37° C., with shaking, then reactions terminated by the addition of 2.5 mL ice-cold dichloromethane and vortexing. After phase separation aided by centrifugation, the lower organic phase was retained and the upper aqueous phase was extracted twice more with 2.5 mL aliquots of dichloromethane. The dichloromethane was removed under nitrogen and the residual sample dissolved in solvent for HPLC analysis.
(§2) To test enzymatic metabolism of 20S(OH)D3 and 20R(OH)D3, the substrates were incorporated into phospholipid vesicles with the ratio of substrate to phospholipid being 0.025 mol/mol phospholipid. Vesicles were incubated with 2 μM bovine CYP11A1 or 0.06 μM human CYP27B1 for up to 10 min. To test enzymatic metabolism of 20(OH)D3 in CYP24, the substrate was incorporated into phospholipids vesicles with 0.15-0.5 μM CYP24. To test enzymatic metabolism of 20(OH)D3 in CYP27A1, purified CYP27A1 was preincubated with the vesicles for 6 min at 37° C. Adrenodoxin was added last to initiate the reaction. For kinetic experiments, the incubations were typically 0.5 mL and were carried out over the initial linear period of the reaction (10 min for vitamin D3 and cholesterol and 30 min for 20(OH)D3).

cytochrome P450scc = biological target: T2, cytochrome P450scc (Bos taurus, UniProt P00189); assay: Metabolism by cytochrome P450scc in cyclodextrin; details: substrate in 0.45% cyclodextrin
T2 sequence (P00189 40-520): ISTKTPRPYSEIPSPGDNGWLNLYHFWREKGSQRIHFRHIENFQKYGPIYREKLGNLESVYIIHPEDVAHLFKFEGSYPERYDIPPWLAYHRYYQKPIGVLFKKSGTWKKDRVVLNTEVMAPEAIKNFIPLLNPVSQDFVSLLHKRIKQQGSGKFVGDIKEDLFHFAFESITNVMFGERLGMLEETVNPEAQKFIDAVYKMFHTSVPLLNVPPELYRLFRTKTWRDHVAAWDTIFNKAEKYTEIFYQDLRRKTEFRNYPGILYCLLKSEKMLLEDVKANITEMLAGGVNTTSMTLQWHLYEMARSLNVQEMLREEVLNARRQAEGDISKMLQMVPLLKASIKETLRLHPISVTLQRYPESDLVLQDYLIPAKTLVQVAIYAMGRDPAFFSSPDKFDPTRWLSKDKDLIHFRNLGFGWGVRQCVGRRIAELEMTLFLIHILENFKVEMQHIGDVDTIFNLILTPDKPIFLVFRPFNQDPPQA
Method: Adrenodoxin was expressed in Escherichia coli and purified as described before (41). […] Metabolites were analysed using a Perkin Elmer HPLC equipped with a C18 column (Brownlee Aquapore, 22 cm×4.6 mm, particle size 7 μm).

CYP27A1 [6] = biological target: T3, CYP27A1 (Homo sapiens, UniProt Q02318); assay: Metabolism by CYP27A1 (cyclodextrin or phospholipid vesicles); details: cyclodextrin
T3 sequence (Q02318 34-531): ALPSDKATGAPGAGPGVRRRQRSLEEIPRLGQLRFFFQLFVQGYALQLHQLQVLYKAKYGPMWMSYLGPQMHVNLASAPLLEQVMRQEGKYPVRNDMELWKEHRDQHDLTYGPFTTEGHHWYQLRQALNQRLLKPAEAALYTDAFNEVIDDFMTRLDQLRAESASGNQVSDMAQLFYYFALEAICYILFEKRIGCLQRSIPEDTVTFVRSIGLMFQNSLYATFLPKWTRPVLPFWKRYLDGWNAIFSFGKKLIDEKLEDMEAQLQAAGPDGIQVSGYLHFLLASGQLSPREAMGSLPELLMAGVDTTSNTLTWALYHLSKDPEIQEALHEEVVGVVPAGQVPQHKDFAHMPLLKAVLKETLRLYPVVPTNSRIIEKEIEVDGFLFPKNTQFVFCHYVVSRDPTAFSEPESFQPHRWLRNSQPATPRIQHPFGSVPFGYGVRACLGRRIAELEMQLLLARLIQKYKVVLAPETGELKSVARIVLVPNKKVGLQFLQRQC
Method: as §2
Kinetic characterization of the metabolism of 20(OH)D3 by CYP27A1 was carried out with substrate dissolved in either cyclodextrin or phospholipid vesicle. Vitamin D3 and 20(OH)D3 were incubated with 0.4 μM CYP27A1 and 1 μM CYP27A1, respectively, for 10 and 30 min. The products were analyzed by reverse phase HPLC. The hyperbolic curves were fitted using the equation v/[E]=(kcat—[S])/(Km+[S]) where v is reaction velocity, [E] is the CYP27A1 concentration, and [S] the substrate concentration.

SMILES: C=C1CCC(O)CC1=CC=C1CCCC2(C)C1CCC2(O)C(C)O [17,20Rdi(OH)pD, (5Z,7E)-(20R)-9,10-secopregna-5,7,10(19)-triene-3β,17α,20-triol]
TGF-b1 induced Col1A1 mRNA (Col1A1 mRNA): reduce TGF-β1 induced Col1A1 mRNA

kcat (rat CYP24; phospholipid vesicles): 52.6±2.9 mol/min/mol CYP24
kcat higher than that for 1,25(OH)2D3 (rat CYP24; phospholipid vesicles): 3.8 fold
SMILES: C=C1CC[C@H](O)C/C1=C/C=C1\CCC[C@]2(C)[C@@H]([C@H](C)CCCC(C)(C)O)CC[C@@H]12 [25-hydroxycholecalciferol, (5Z,7E)-9,10-secocholesta-5,7,10(19)-triene-3β,25-diol, reference compound]
inhibition of colony formation (HaCaT keratinocytes [1]): no significant effect
stimulation of involucrin mRNA (involucrin [2]): ~2.1 fold
increase in the expression of involucrin (involucrin [3]): negligible
forward scatter, mean signal intensity (MSI) (HaCaT keratinocytes [4]): 254±0.06
increase of CYP27B1 expression (CYP27B1): ~1.3 fold
inhibition of CYP27A1 expression (CYP27A1 [5]): ~1.9 fold
stimulation of transcriptional activity of the CYP24 promoter (CYP24 promoter): ~12 fold
Km (rat CYP24): 0.0080±0.0016 mol substrate/mol phospholipid

SMILES: C=C1CC[C@H](O)C/C1=C/C=C1\CCC[C@]2(C)[C@@H]([C@H](C)CCCC(C)C)CC[C@@H]12 [cholecalciferol, (5Z,7E)-9,10-secocholesta-5,7,10(19)-triene-3β-ol, reference compound]
kcat (cytochrome P450scc): 19.7±0.9 mol/min P450scc
kcat (CYP27A1 [6]): 0.0283 ± 0.00233 s⁻¹

— patent publication US20120258938A1, “Enzymatic Production or Chemical Synthesis and Uses for 5,7-Dienes and UVB Conversion Products Thereof” (priority 2008, published 2012)
